A melting point compilation (Tetko et al.; mined from patent text by program, amines drawn as free bases though some values may be those of a salt)

| Structure (SMILES) | melting point |
| --- | --- |
| Cc1c(C(=O)CS(=O)Cc2ccc(Cl)cc2)sc2ccc(Cl)cc12 (configuration not stated) | 168 to 170 °C |
| CC(C)c1nc(CCCOCc2ccccc2)[nH]c1Sc1cc(Cl)cc(Cl)c1 | 118 to 119 °C |
| COC(=O)Cc1cc(C)ccc1OCc1ccc(OCc2nc(-c3ccccc3)oc2C)cc1 | 80 to 81 °C |
| CC(Cn1c(=S)[nH]c2ccccc2c1=O)N1CCC(C(=O)c2ccc(F)cc2)CC1 (configuration not stated) | 161 °C |
| Cc1oc(-c2ccccc2)nc1COc1ccc(CCCCCO)cc1 | 78 to 79 °C |
| COc1cccc(C(=O)N2CCc3cc(S(=O)(=O)N4CCN(c5cccc(Cl)c5)CC4)ccc32)c1 | 155 to 156 °C |
| Cc1ccc(CC(=O)c2sccc2S(=O)(=O)Nc2onc(C)c2C)cc1 | 95 to 100 °C |
| CN(C)Cc1ccc2oc(-c3ccc(O)cc3)cc(=O)c2c1 | 99 to 102 °C |
| COc1nc(NCCc2ccccc2)c2cc(C)sc2n1 | 138 °C |
| CCCOCc1nc2nccnc2c(=O)[nH]1 | 158 to 160 °C |
| Cc1c(OCCCl)cccc1[N+](=O)[O-] | 58 to 59 °C |
| O=C(Cl)c1ncn(Cc2ccc(Cl)c(Cl)c2)c1C(=O)Cl | 126 to 128 °C |
| C=C1C=C(Oc2cc(C(=O)O)ccc2OC)C1(F)F | 163 to 165 °C |
| CC#Cc1ccc(NC(=O)c2cccnc2NCc2ccc(OC)nc2)cc1C(F)(F)F | 109 to 111 °C |
| CN(C)C(=O)c1cc(N2CCN([C@H]3CC[C@@H](c4cn(C)c5ccc(C#N)cc54)CC3)CC2)c2ncccc2c1 | 163 to 165 °C |
| Cn1c2ccccc2c2c3c(ccc21)C(=O)OC3=O | 153 °C |
| CC(C)(OCc1nn(Cc2ccccc2)c2ccc([N+](=O)[O-])cc12)C(=O)O | 129 to 131 °C |
| O=C(Nc1ccc(Cl)cc1)ONC1=Nc2ccc(Cl)cc2C(c2ccccc2)=NC1 | 200 to 203 °C |
| COC(=O)c1cccc(OCCN2CCN(c3cc(Cl)nnc3Cl)CC2)c1 | 105 to 107 °C |

| Structure (SMILES) | melting point |
| --- | --- |
| Cn1cc(-c2cc3cccnc3[nH]2)c2ccc(C(=O)O)cc21 | 359 to 361 °C |
| Cc1oc(-c2ccccc2)nc1CCOc1ccc(Cn2cc(CCC(=O)O)c(-c3ccccc3)n2)cc1 | 142 to 143 °C |
| Cc1cccc(C(=NO)c2ccc(OCCOc3ccc(C(=NO)c4cccc(C)c4)cc3)cc2)c1 | 151 to 153 °C |
| CC(=O)N1CCc2cc(S(=O)(=O)n3c(CCC(=O)O)cc4nc(Cl)ccc43)ccc21 | 216 °C |
| Cc1cc(CCCOc2c(C)cc(C#N)cc2C)on1 | 46 to 48 °C |
| O=S(CCCCCOc1ccc(C2=C(c3ccc(O)cc3)CCCc3cc(O)ccc32)cc1)CCCC(F)(F)C(F)(F)F (configuration not stated) | 165 to 168 °C |
| Cc1cc(-c2nnc3c4ccccc4c(OCc4ccc5ccccc5n4)nn23)no1 | 223 to 225 °C |
| C#CCn1c(C(F)(F)F)cc2ccccc21 | 59 °C |
| Cc1cc(-c2ccc(O)cc2)cc2ccc(=O)[nH]c12 | 270 to 274 °C |
| COc1ccc(Cn2cnc(=O)c3[nH]c(C(C)C)nc32)cc1OC1CCCC1 | 243 to 244 °C |
| COCCCNS(=O)(=O)NC(=O)/C(C)=C/c1ccc(OCCOC)cc1Oc1ncc(C(F)(F)F)cc1Cl | 121 to 122 °C |
| O=C(NC[C@H]1CN(c2ccc(N3CCC4(CC3)OCCO4)c(F)c2)C(=O)O1)C(Cl)Cl | 175 to 178 °C |
| CC(=O)Oc1cc([N+](=O)[O-])ccc1CN1C(=O)c2ccccc2C1=O | 175 to 178 °C |
| CN(C)C1(c2cccc(F)c2)CC=C(c2[nH]c3ccccc3c2CCc2ccncc2)CC1 (configuration not stated) | 194 to 198 °C |
| N#CCCNC(=O)c1cccc(-c2cccc3nn(Cc4cccc(F)c4)cc23)c1 | 170 to 171 °C |
| CCCc1c(OCCCCCCc2cc(C)c(O)c(O)c2C)ccc(C(=O)OCC)c1O | 61 to 64 °C |
| CN(C)CCc1ccc(N)c2[nH]ncc12 | 125 °C |
| Cc1nn(-c2ccc(Br)cc2)cc1C(=O)N(CC(=O)O)c1ccc(OCC(C)(C)C)c(C#N)c1 | 169 to 170 °C |
